# Results taken from US20150038707A1, “PROCESS FOR MAKING CGRP RECEPTOR ANTAGONISTS” (Merck Sharp & Dohme Corp., priority 2012, published 2015).
# Legend:
# [1] = system: Ae. aegypti Isla mujeres strain (metabolically pyrethroid resistant); assay: Toxicity assay on treated netting (Example 7), Isla mujeres strain; type: in vivo
# Description: (§1) Several compounds were tested to determine their toxic effect on Ae. aegypti mosquitoes. Three mosquito strains were tested—Houston which is pyrethroid susceptible, That which is pyrethroid tolerant and Isla Mujer which is metabolically pyrethroid resistant.
# (§2) The toxicity assay involved a single chamber to which treated netting was added. Twenty (20) mosquitoes were transferred to the chamber. After 1 hour, the number of knocked down mosquitoes was recorded and all mosquitoes were transferred to holding cartoons. The mosquitoes were given a 10% sucrose-soaked cotton ball and returned to the insectary. Mortaility was measured after 24 hours. A control assay using acetone-treated netting was used. Six replicates were performed at each treatment concentration.
# [2] = system: Ae. aegypti Houston strain (pyrethroid susceptible); assay: Toxicity assay on treated netting (Example 7), Houston strain; type: in vivo
# Description: as §1, §2
# [3] = system: KDR Resisant An. Gambiae; assay: Bottle toxicity assay (Example 8), knockdown resistant mosquitoes; type: in vivo, Anopheles gambiae; conditions: for KDR Resisant An. Gambiae (% dead (SE)): Strain Tested F123; for effectiveness against knockdown resistant strains: summary of Table 3
# Description: (§3) Several compounds were tested to determine their toxic effect on knockdown resistant Anopheles gambiae mosquitoes and susceptible mosquitoes. Acetone and different amounts of pesticides were added to 250 ml bottles. In one bottle, only acetone was added as a control. The bottles were rotated in all directions while uncapped until all acetone was evaporated and the insecticide was coated onto the inside surfaces of the bottle. A number of knockdown resistant Anopheles gambiae mosquitoes were added to the bottle. The number of dead mosquitoes was recorded at 1 hour and 24 hours.
# [4] = system: Susceptible An. Gambiae; assay: Bottle toxicity assay (Example 8), susceptible mosquitoes; type: in vivo, Anopheles gambiae; conditions: Strain Tested F123
# Description: as §3
# [5] = system: Ae. aegypti Thai strain (pyrethroid tolerant); assay: Toxicity assay on treated netting (Example 7), Thai strain; type: in vivo
# Description: as §1, §2
# [6] = system: female Aedes aegypti (Thailand strain) mosquitoes; assay: Contact irritancy and spatial repellency screening (Example 4); type: in vivo; conditions: Dosage 25 nmol/cm^2; mapped with 3000 other compounds
# Description: (§4) Four compounds of formula (I) were tested for contact irritancy (i.e., movement away from the source after physical contact) at low doses on female Aedes aegypti (Thailand strain) mosquitoes. The contact irritant response was determined by use of the contact irritant assay disclosed by Grieco et al. in “A New Classification System for the Actions of IRS Chemicals Traditionally Used for Malaria Control,” Plos One, Issue 8 (2007) (available at www.plosone.org). The assay used was a cylindrical assembly that included a metal treatment end to which 10 mosquitoes were introduced and a clear receiving chamber. The treatment end included a netting strip (nylon organdy) that was treated with the insecticide of interest at the relevant dose. A butterfly valve separated the treatment end from the remainder of the assembly.
# (§5) The four compounds of formula I described in Example 2 were tested for spatial repellency (directed movement away from the chemical source without the insect making physical contact with the treated surface) at low doses on female Aedes aegypti (Thailand strain) mosquitoes. The spatial repellency response was determined by use of the spatial repellency assay disclosed by Grieco et al. in “A New Classification System for the Actions of IRS Chemicals Traditionally Used for Malaria Control” in Plos One, Issue 8 (2007) (available at www.plosone.org) which is incorporated herein by reference for all relevant and consistent purposes. The assay used was a cylindrical assembly that included a treatment chamber at one end and a control chamber at the other end. The treatment chamber included a netting strip (nylon organdy) that was treated with the insecticide of interest at the relevant dose. The treatment chamber and control chamber were connected by a clear cylinder and were separated from the clear cylinder by butterfly valves. Twenty (20) mosquitoes were introduced into the clear central chamber and the butterfly valves were opened after 30 seconds. After 10 minutes, the valves were closed and the number of mosquitoes in each chamber was counted.
# Dosage was 25 nmol/cm^2. Several known compounds were also mapped for comparison—alphacypermethrin, cypermethrin, propoxur, bendiocarb, permethrin, SS220, DDT, deet and chlorpyrifos.
# [7] = system: Ae. Aegypti strains Houston, That and Isla Mujer; assay: Spatial repellency on metabolically resistant mosquitoes (Example 6); type: in vivo
# Description: as §5
# (§6) The spatial repellency protocol of Example 3 was used to determine spatial repellency against mosquitoes (Ae. Aegypti) that had acquired metabolic resistance against pyrethroids. DDT and transfluthrin were also tested. Three mosquito strains were tested—Houston which is pyrethroid susceptible, That which is pyrethroid tolerant and Isla Mujer which is metabolically pyrethroid resistant.
# [8] = system: female Aedes aegypti (Thailand strain) mosquitoes; assay: Contact irritancy assay on mosquitoes (Example 2); type: in vivo; conditions: netting treated at 0.0025-2.5 nmol/cm^2
# Description: as §4
# (§7) Each composition was applied to the netting strip at a varied dose via a 1.5 ml acetone solution. Four (4) treatment concentrations were used—0.0025 nmol/cm^2, 0.025 nmol/cm^2, 0.25 nmol/cm^2 and 2.5 nmol/cm^2. Netting was allowed to dry for 15 minutes prior to placement in the cylinder. Control assays were performed with netting treated with acetone only.
# (§8) For each run, 10 mosquitoes were transferred into the treatment end of the assembly and, after 30 seconds, the butterfly valve was opened. The valve was closed after 10 minutes and the number of mosquitoes in the clear end (i.e., the number of escaped mosquitoes) was tested.
# [9] = system: Ae. Aegypti, That strain (pyrethroid tolerant); assay: Contact irritancy on pyrethroid tolerant mosquitoes (Example 5); type: in vivo
# Description: as §4, §7, §8
# as §6, with “contact irritancy” for “spatial repellency”, “2” for “3”, “Alphacypermethrin” for “DDT”
# [10] = Dose 0.25 nm/cm^2, Time 24 hours
# [11] = Dose 2.5 nm/cm^2, Time 24 hours
# [12] = Dose 0.25 μg/bottle, Time 1 hour
# [13] = Dose 0.25 μg/bottle, Time 24 hours
# [14] = Dose 2.5 μg/bottle, Time 1 hour
# [15] = Dose 2.5 μg/bottle, Time 24 hours
# [16] = Dose 0.025 nm/cm^2, Time 1 hour
# [17] = Dose 0.025 nm/cm^2, Time 24 hours
# [18] = Dose 0.0025 μg/bottle, Time 1 hour
# [19] = Dose 0.0025 μg/bottle, Time 24 hours
# [20] = Dose 0.025 μg/bottle, Time 1 hour
# [21] = Dose 0.025 μg/bottle, Time 24 hours
SMILES,"Isla mujeres (% dead (SE)) ([1]; Dose 0.25 nm/cm^2, Time 1 hour)","Isla mujeres (% dead (SE)) [1, 10]","Isla mujeres (% dead (SE)) ([1]; Dose 2.5 nm/cm^2, Time 1 hour)","Isla mujeres (% dead (SE)) [1, 11]","Houston (% dead (SE)) ([2]; Dose 0.25 nm/cm^2, Time 1 hour)","Houston (% dead (SE)) [2, 10]","Houston (% dead (SE)) ([2]; Dose 2.5 nm/cm^2, Time 1 hour)","Houston (% dead (SE)) [2, 11]","KDR Resisant An. Gambiae (% dead (SE)) [3, 12]","KDR Resisant An. Gambiae (% dead (SE)) [3, 13]","KDR Resisant An. Gambiae (% dead (SE)) [3, 14]","KDR Resisant An. Gambiae (% dead (SE)) [3, 15]",effectiveness against knockdown resistant strains [3],"Susceptible An. Gambiae (% dead (SE)) [4, 12]","Susceptible An. Gambiae (% dead (SE)) [4, 13]","Susceptible An. Gambiae (% dead (SE)) [4, 14]","Thai (% dead (SE)) ([5]; Dose 0.25 nm/cm^2, Time 1 hour)","Thai (% dead (SE)) [5, 10]","Thai (% dead (SE)) ([5]; Dose 2.5 nm/cm^2, Time 1 hour)","Thai (% dead (SE)) [5, 11]",other results
"CC1(C)C(C=C(Cl)Cl)C1C(=O)OCc1cccc(Oc2ccccc2)c1 (stereo not drawn) [Permethrin, permethrin, reference compound]",87.49%,14.68%,100%,100%,100%,100%,100%,100%,0%,24%,25%,78%,less effective,100%,100%,100%,–,–,–,–,"Susceptible An. Gambiae (% dead (SE)) [4, 15]: 100%"
"CC1(C)C(C=C(Cl)Cl)C1C(=O)OC(C#N)c1cccc(Oc2ccccc2)c1 (stereo not drawn) [Alpha-cypermethrin, alpha cypermethrin, reference compound]",96.66%,41.06%,100%,100%,100%,100%,100%,100%,–,–,–,–,–,–,–,–,100%,83.9%,100%,100%,–
"CC1(C)[C@H](C=C(Cl)Cl)[C@H]1C(=O)OCc1c(F)c(F)cc(F)c1F [Transfluthrin, transfluthrin, reference compound]",100%,100%,100%,100%,100%,100%,100%,100%,–,–,–,–,–,–,–,–,100%,100%,100%,100%,"Isla mujeres (% dead (SE)) [1, 16]: 100%; Isla mujeres (% dead (SE)) [1, 17]: 1.6%; Houston (% dead (SE)) [2, 16]: 100%; Houston (% dead (SE)) [2, 17]: 100%; Thai (% dead (SE)) [5, 16]: 100%; Thai (% dead (SE)) [5, 17]: 91.7%"
"C/C=C/C1C(C(=O)OCc2c(F)c(F)c(COC)c(F)c2F)C1(C)C (stereo in doubt) [Metafluthrin, metafluthrin, reference compound]",100%,77.27%,100%,100%,100%,100%,100%,100%,100%,100%,100%,100%,less effective,100%,100%,100%,100%,100%,100%,100%,"Isla mujeres (% dead (SE)) [1, 16]: 56.3%; Isla mujeres (% dead (SE)) [1, 17]: 21.89%; Houston (% dead (SE)) [2, 16]: 100%; Houston (% dead (SE)) [2, 17]: 100%; KDR Resisant An. Gambiae (% dead (SE)) [3, 18]: 10%; KDR Resisant An. Gambiae (% dead (SE)) [3, 19]: 25%; KDR Resisant An. Gambiae (% dead (SE)) [3, 20]: 47%; KDR Resisant An. Gambiae (% dead (SE)) [3, 21]: 86%; Thai (% dead (SE)) [5, 16]: 100%; Thai (% dead (SE)) [5, 17]: 89.2%; Susceptible An. Gambiae (% dead (SE)) [4, 18]: 100%; Susceptible An. Gambiae (% dead (SE)) [4, 19]: 86%; Susceptible An. Gambiae (% dead (SE)) [4, 20]: 100%; Susceptible An. Gambiae (% dead (SE)) [4, 21]: 100%; Susceptible An. Gambiae (% dead (SE)) [4, 15]: 100%"
CC(C)c1cccc(COC(=O)C2C(C=C(Cl)C(F)(F)F)C2(C)C)c1F (stereo not drawn) [Compound 1415],–,–,–,–,–,–,–,–,–,–,–,–,–,–,–,–,–,–,–,–,"contact irritancy and spatial repellency relative to screened compounds (FIG. 3) [6]: superior contact irritancy and spatial repellency relative to most screened compounds; spatial repellency, all strains (FIG. 5) [7]: spatial repellants for all strains; contact irritancy, dose compared with alphacypermethrin (FIG. 1) [8]: showed contact irritancy at a lower dose than alphacypermethrin; contact irritancy (FIG. 1) ([8]; 10 minutes): showed contact irritancy at relatively low doses; contact irritancy, tolerant strain (FIG. 4) [9]: contact irritants for tolerant strains"
